From patent US6140368A, “Naphthols useful in antiviral methods” (The Regents of the University of California, priority 1998, dated 2000)
pIC50: −log10 of the molar value. Where two headings read alike, the source gives them in different places.

Columns and labels:
[1] = molecular target: HIV reverse transcriptase (Human immunodeficiency virus type 1 group M subtype B, UniProt P03366); assay: Reverse transcriptase scintillation proximity assay (Example 4, Table 2); assay type: biochemical; details: for pIC50: read-out: IC50 (RT activity); for remaining activity at 10 µM: 0.05 h, 10 μM inhibitor, relative to dimethyl sulfoxide = 100%, read-out: % RT activity remaining at 10 μM
Procedure, shortened: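 Purified RT with biotinylated 17mer/50mer RNA-DNA template-primer (39 nm), pH 8.0 Tris with 10 mM MgCl2, 60 mM KCl, dNTPs plus tritiated dTTP; inhibitor preincubated 10 min at 37 °C before enzyme, reaction 3 min. Incorporation read by streptavidin SPA counting.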

[2] = molecular target: T1, HIV integrase (Human immunodeficiency virus type 1 group M subtype B, UniProt P04585); assay: biochemical
[3] = molecular target: T1, HIV integrase; assay: biochemical; remark: listed apart in the source
[4] = read-out: Inhibition of strand transfer (IC50)
[5] = read-out: Inhibition of 3' processing activity (IC50)
[6] = Inhibition of strand transfer (IC50)
[7] = Inhibition of 3' processing activity (IC50)

Structure (SMILES)	pIC50 [1]	pIC50 [2, 4]	pIC50 [3, 5]	remaining activity at 10 µM [1] [%]	pIC50 [2, 6]	pIC50 [3, 7]
O=C(Nc1ccc2c(O)c(N=Nc3ccccc3)c(S(=O)(=O)O)cc2c1)Nc1ccc2c(O)c(N=Nc3ccccc3)c(S(=O)(=O)O)cc2c1 [Compound 4, calcomine orange, reference compound]	5.82	5.70	5.70			
O=C(O)CC(C(=O)O)c1ccc(N=Nc2c(S(=O)(=O)O)cc3cc(NC(=O)Nc4ccc5c(O)c(N=Nc6ccc(C(CC(=O)O)C(=O)O)cc6)c(S(=O)(=O)O)cc5c4)ccc3c2O)cc1 (centres unmarked) [Compound 33]	6.30	6.22	6.52			
O=C(Nc1ccc2c(O)c(N=Nc3cnc4ccccc4c3)c(S(=O)(=O)O)cc2c1)Nc1ccc2c(O)c(N=Nc3cnc4ccccc4c3)c(S(=O)(=O)O)cc2c1 [Compound 37]		< 5.52	< 5.52	16		
COc1cc(N=Nc2c(S(=O)(=O)O)cc3cc(NC(=O)Nc4ccc5c(O)c(N=Nc6cc(OC)cc(OC)c6)c(S(=O)(=O)O)cc5c4)ccc3c2O)cc(OC)c1 [Compound 38]		< 5.52	< 5.52	47		
COc1ccc(N=Nc2c(S(=O)(=O)O)cc3cc(NC(=O)Nc4ccc5c(O)c(N=Nc6ccc(OC)c(OC)c6)c(S(=O)(=O)O)cc5c4)ccc3c2O)cc1OC [Compound 39]		5.52	5.70	12		
COc1ccc(N=Nc2c(S(=O)(=O)O)cc3cc(NC(=O)Nc4ccc5c(O)c(N=Nc6ccc(OC)nc6OC)c(S(=O)(=O)O)cc5c4)ccc3c2O)c(OC)n1 [Compound 40]		< 5.52	< 5.52	31		
O=C(Nc1ccc2c(O)c(N=Nc3ccc(Br)cc3Br)c(S(=O)(=O)O)cc2c1)Nc1ccc2c(O)c(N=Nc3ccc(Br)cc3Br)c(S(=O)(=O)O)cc2c1 [Compound 41]		< 4.70	< 4.70	66		
CCOC(=O)c1ccccc1N=Nc1c(S(=O)(=O)O)cc2cc(NC(=O)Nc3ccc4c(O)c(N=Nc5ccccc5C(=O)OCC)c(S(=O)(=O)O)cc4c3)ccc2c1O [Compound 42]		< 5.52	< 5.52	47		
CCOC(=O)c1cccc(N=Nc2c(S(=O)(=O)O)cc3cc(NC(=O)Nc4ccc5c(O)c(N=Nc6cccc(C(=O)OCC)c6)c(S(=O)(=O)O)cc5c4)ccc3c2O)c1 [Compound 43]		< 4.70	< 4.70	52		
O=C(Nc1ccc2c(O)c(N=Nc3cccc([N+](=O)[O-])c3)c(S(=O)(=O)O)cc2c1)Nc1ccc2c(O)c(N=Nc3cccc([N+](=O)[O-])c3)c(S(=O)(=O)O)cc2c1 [Compound 45]				2.8	< 5.52	< 5.52
O=C(Nc1ccc2c(O)c(N=Nc3ccc([N+](=O)[O-])cc3)c(S(=O)(=O)O)cc2c1)Nc1ccc2c(O)c(N=Nc3ccc([N+](=O)[O-])cc3)c(S(=O)(=O)O)cc2c1 [Compound 46]				4.6	< 5.52	< 5.52
COC(=O)c1ccc(N=Nc2c(S(=O)(=O)O)cc3cc(NC(=O)Nc4ccc5c(O)c(N=Nc6ccc(C(=O)OC)cc6I)c(S(=O)(=O)O)cc5c4)ccc3c2O)c(I)c1 [Compound 47]		< 5.52	< 5.52	2		
O=C(Nc1ccc2c(O)c(N=Nc3cccc4c(=O)[nH][nH]c(=O)c34)c(S(=O)(=O)O)cc2c1)Nc1ccc2c(O)c(N=Nc3cccc4c(=O)[nH][nH]c(=O)c34)c(S(=O)(=O)O)cc2c1 [Compound 49]		6.00	5.70	1		
COc1cc(C(=O)O)c(N=Nc2c(S(=O)(=O)O)cc3cc(NC(=O)Nc4ccc5c(O)c(N=Nc6c(C(=O)O)cc(OC)c(OC)c6OC)c(S(=O)(=O)O)cc5c4)ccc3c2O)c(OC)c1OC [Compound 50]		5.70	5.70	1.3		
O=C(Nc1ccc2c(O)c(N=Nc3cc(C(=O)O)cc(C(=O)O)c3)c(S(=O)(=O)O)cc2c1)Nc1ccc2c(O)c(N=Nc3cc(C(=O)O)cc(C(=O)O)c3)c(S(=O)(=O)O)cc2c1 [Compound 51]		6.05	6.30	1.1		
O=C(Nc1ccc2c(O)c(N=Nc3c(Cl)cc(C(=O)O)cc3Cl)c(S(=O)(=O)O)cc2c1)Nc1ccc2c(O)c(N=Nc3c(Cl)cc(C(=O)O)cc3Cl)c(S(=O)(=O)O)cc2c1 [Compound 52]		6.30	6.70	1.3		

Structure (SMILES)	pIC50 [1]	pIC50 [2, 4]	pIC50 [3, 5]	remaining activity at 10 µM [1] [%]	pIC50 [2, 6]	pIC50 [3, 7]
Cc1ccc(CO)cc1N=Nc1c(S(=O)(=O)O)cc2cc(NC(=O)Nc3ccc4c(O)c(N=Nc5cc(CO)ccc5C)c(S(=O)(=O)O)cc4c3)ccc2c1O [Compound 55]		< 5.52	< 5.52	24		
COC(=O)/C=C/c1ccc(N=Nc2c(S(=O)(=O)O)cc3cc(NC(=O)Nc4ccc5c(O)c(N=Nc6ccc(/C=C/C(=O)OC)cc6)c(S(=O)(=O)O)cc5c4)ccc3c2O)cc1 [Compound 56]		< 5.52	< 5.52	27		
O=C(Nc1ccc2c(O)c(N=Nc3ccc4oc(=O)ccc4c3)c(S(=O)(=O)O)cc2c1)Nc1ccc2c(O)c(N=Nc3ccc4oc(=O)ccc4c3)c(S(=O)(=O)O)cc2c1 [Compound 59]		6.00	5.70	2		
O=C(O)CCc1ccc(N=Nc2c(S(=O)(=O)O)cc3cc(NC(=O)C(=O)Nc4ccc5c(O)c(N=Nc6ccc(CCC(=O)O)cc6)c(S(=O)(=O)O)cc5c4)ccc3c2O)cc1 [Compound 94]		6.40	6.00			
O=C(O)CCCc1ccc(N=Nc2c(S(=O)(=O)O)cc3cc(NC(=O)C(=O)Nc4ccc5c(O)c(N=Nc6ccc(CCCC(=O)O)cc6)c(S(=O)(=O)O)cc5c4)ccc3c2O)cc1 [Compound 95]		6.15	6.40			
O=C(Nc1ccc2c(O)c(N=Nc3cccc(C(=O)O)c3)c(S(=O)(=O)O)cc2c1)C(=O)Nc1ccc2c(O)c(N=Nc3cccc(C(=O)O)c3)c(S(=O)(=O)O)cc2c1 [Compound 96]		6.40	6.30			
O=C(O)CC(C(=O)O)c1ccc(N=Nc2c(S(=O)(=O)O)cc3cc(NC(=O)C(=O)Nc4ccc5c(O)c(N=Nc6ccc(C(CC(=O)O)C(=O)O)cc6)c(S(=O)(=O)O)cc5c4)ccc3c2O)cc1 (centres unmarked) [Compound 97]		6.00	6.30			
COc1cc(N=Nc2c(S(=O)(=O)O)cc3cc(NC(=O)C(=O)Nc4ccc5c(O)c(N=Nc6cc(OC)c(C(=O)O)cc6Cl)c(S(=O)(=O)O)cc5c4)ccc3c2O)c(Cl)cc1C(=O)O [Compound 100]		6.15	6.40			
COc1ccc(C(=O)O)c(N=Nc2c(S(=O)(=O)O)cc3cc(NC(=O)C(=O)Nc4ccc5c(O)c(N=Nc6c(C(=O)O)ccc(OC)c6OC)c(S(=O)(=O)O)cc5c4)ccc3c2O)c1OC [Compound 101]		5.70	6.30			
COc1cc(C(=O)O)c(N=Nc2c(S(=O)(=O)O)cc3cc(NC(=O)C(=O)Nc4ccc5c(O)c(N=Nc6c(C(=O)O)cc(OC)c(OC)c6OC)c(S(=O)(=O)O)cc5c4)ccc3c2O)c(OC)c1OC [Compound 102]		6.15	6.22			
O=C(Nc1ccc2c(O)c(N=Nc3cc(C(=O)O)ccc3C(=O)O)c(S(=O)(=O)O)cc2c1)C(=O)Nc1ccc2c(O)c(N=Nc3cc(C(=O)O)ccc3C(=O)O)c(S(=O)(=O)O)cc2c1 [Compound 104]		6.40	6.22			
O=C(Nc1ccc2c(O)c(N=Nc3ccccc3)c(S(=O)(=O)O)cc2c1)C(=O)Nc1ccc2c(O)c(N=Nc3ccccc3)c(S(=O)(=O)O)cc2c1 [Compound 106]		6.40	5.82			
O=C(O)CCC(NC(=O)c1ccc(N=Nc2c(S(=O)(=O)O)cc3cc(NC(=O)C(=O)Nc4ccc5c(O)c(N=Nc6ccc(C(=O)NC(CCC(=O)O)C(=O)O)cc6)c(S(=O)(=O)O)cc5c4)ccc3c2O)cc1)C(=O)O (centres unmarked) [Compound 107]		6.30	6.15			
CC(=O)Nc1ccc(N=Nc2c(S(=O)(=O)O)cc3cc(NC(=O)C(=O)Nc4ccc5c(O)c(N=Nc6ccc(NC(C)=O)cc6)c(S(=O)(=O)O)cc5c4)ccc3c2O)cc1 [Compound 108]		6.15	6.00			
COc1cc(N=Nc2c(S(=O)(=O)O)cc3cc(NC(=O)C(=O)Nc4ccc5c(O)c(N=Nc6cc(OC)c(OC)c(OC)c6)c(S(=O)(=O)O)cc5c4)ccc3c2O)cc(OC)c1OC [Compound 110]		6.40	5.96			
Cc1cc2nc(N=Nc3c(S(=O)(=O)O)cc4cc(NC(=O)C(=O)Nc5ccc6c(O)c(N=Nc7nc8cc(C)c(C)cc8[nH]7)c(S(=O)(=O)O)cc6c5)ccc4c3O)[nH]c2cc1C [Compound 114]		6.52	6.00			
